Measurements taken from publication PMC3525726 (Cancer research, 2012).

Assays:
Type in all cases: biochemical
ABCC10 (MRP7) [1] = target: T1, ABCC10 (MRP7) (Homo sapiens, UniProt Q5T3U5); assay: Pi release ATPase stimulation assay; details: 5 mM ATP, Mg2+, pH 7.5, 37 °C; crude membranes
T1 sequence (Q5T3U5 1-1492): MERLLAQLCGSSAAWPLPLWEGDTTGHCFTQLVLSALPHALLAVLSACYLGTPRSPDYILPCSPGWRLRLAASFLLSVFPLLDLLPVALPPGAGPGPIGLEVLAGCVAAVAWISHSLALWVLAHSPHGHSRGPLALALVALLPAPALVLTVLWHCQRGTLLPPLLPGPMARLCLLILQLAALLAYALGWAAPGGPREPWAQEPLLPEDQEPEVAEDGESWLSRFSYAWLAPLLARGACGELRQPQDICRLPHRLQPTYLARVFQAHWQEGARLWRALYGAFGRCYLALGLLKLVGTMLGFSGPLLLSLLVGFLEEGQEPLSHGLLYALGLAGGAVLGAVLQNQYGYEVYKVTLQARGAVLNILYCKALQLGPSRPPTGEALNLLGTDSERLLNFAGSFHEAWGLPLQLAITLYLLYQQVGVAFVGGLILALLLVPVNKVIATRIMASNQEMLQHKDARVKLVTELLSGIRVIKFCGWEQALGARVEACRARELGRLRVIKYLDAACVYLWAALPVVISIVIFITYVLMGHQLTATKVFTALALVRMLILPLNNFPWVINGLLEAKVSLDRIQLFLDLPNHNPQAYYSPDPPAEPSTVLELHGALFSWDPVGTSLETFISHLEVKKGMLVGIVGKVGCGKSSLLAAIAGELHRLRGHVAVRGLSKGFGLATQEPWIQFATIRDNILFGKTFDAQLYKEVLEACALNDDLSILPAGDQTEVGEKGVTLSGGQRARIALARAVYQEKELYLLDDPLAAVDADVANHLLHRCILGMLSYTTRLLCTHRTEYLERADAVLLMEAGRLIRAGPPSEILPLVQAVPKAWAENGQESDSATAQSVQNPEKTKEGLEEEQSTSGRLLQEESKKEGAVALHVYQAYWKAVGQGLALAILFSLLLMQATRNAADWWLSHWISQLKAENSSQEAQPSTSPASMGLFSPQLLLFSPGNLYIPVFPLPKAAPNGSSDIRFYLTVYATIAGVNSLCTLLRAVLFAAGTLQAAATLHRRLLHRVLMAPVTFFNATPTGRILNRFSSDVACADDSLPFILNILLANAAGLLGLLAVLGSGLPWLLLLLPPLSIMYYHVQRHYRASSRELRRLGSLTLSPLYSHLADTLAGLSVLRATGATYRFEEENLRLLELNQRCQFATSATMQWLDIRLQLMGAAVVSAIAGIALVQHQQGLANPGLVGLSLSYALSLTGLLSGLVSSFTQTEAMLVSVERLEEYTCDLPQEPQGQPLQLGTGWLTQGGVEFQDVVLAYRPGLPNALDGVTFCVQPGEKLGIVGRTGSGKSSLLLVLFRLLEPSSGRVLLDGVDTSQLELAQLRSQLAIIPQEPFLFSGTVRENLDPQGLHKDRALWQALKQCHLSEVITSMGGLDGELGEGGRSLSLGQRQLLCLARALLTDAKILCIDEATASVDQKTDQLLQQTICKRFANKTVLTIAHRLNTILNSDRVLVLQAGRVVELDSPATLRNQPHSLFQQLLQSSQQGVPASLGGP

ABCC10 (MRP7) [2] = target: T1, ABCC10 (MRP7); assay: Pi release ATPase stimulation assay; details: 5 mM ATP, Mg2+, pH 7.5, 37 °C; crude membranes; remark: listed apart in the source
ABCC10 (MRP7) [3] = target: T1, ABCC10 (MRP7); assay: Pi release ATPase stimulation assay; details: 5 mM ATP, Mg2+, pH 7.5, 37 °C; crude membranes; remark: listed apart in the source
ABCC10 (MRP7) [4] = target: T1, ABCC10 (MRP7); assay: Pi release ATPase inhibition assay; details: read-out: % inhibition at 0.625 μM
ABCC10 (MRP7) [5] = target: T1, ABCC10 (MRP7); assay: Pi release ATPase inhibition assay; details: 5 mM ATP, Mg2+, pH 7.5, 37 °C; crude membranes

Nc1ccn([C@@H]2O[C@H](CO)[C@@H](O)[C@@H]2O)c(=O)n1 [Ara-C]
% stimulation of ATPase activity at 0.625 μM (ABCC10 (MRP7) [1]): 31.8%

C[C@]12CC[C@@H]3c4ccc(O)cc4CC[C@H]3[C@@H]1CC[C@@H]2O[C@@H]1O[C@H](C(=O)O)[C@@H](O)[C@H](O)[C@H]1O [E217βG]
% stimulation of ATPase activity (ABCC10 (MRP7) [2]): 30%

CC(=O)O[C@@]12CO[C@@H]1C[C@H](O)[C@@]1(C)C(=O)[C@H](O)C3=C(C)[C@@H](OC(=O)[C@H](O)[C@@H](NC(=O)OC(C)(C)C)c4ccccc4)C[C@@](O)([C@@H](OC(=O)c4ccccc4)[C@H]21)C3(C)C [docetaxel]
% stimulation of ATPase activity at 5 μM (ABCC10 (MRP7) [3]): 24.38%

C#Cc1cccc(Nc2ncnc3cc(OCCOC)c(OCCOC)cc23)c1 [erlotinib]
inhibition at 0.625 µM (ABCC10 (MRP7) [4]): 47%

Cc1ccc(NC(=O)c2ccc(CN3CCN(C)CC3)cc2)cc1Nc1nccc(-c2cccnc2)n1 [imatinib]
% inhibition at 5 μM (ABCC10 (MRP7) [5]): cepharanthine, sorafenib, imatinib, nilotinib, erlotinib and lapatinib were effective inhibitors of ABCC10 ATPase activity

Cc1cn(-c2cc(NC(=O)c3ccc(C)c(Nc4nccc(-c5cccnc5)n4)c3)cc(C(F)(F)F)c2)cn1 [nilotinib]
inhibition at 0.625 µM (ABCC10 (MRP7) [4]): 41.4%

CC(=O)O[C@H]1C(=O)[C@@]2(C)[C@H]([C@H](OC(=O)c3ccccc3)[C@]3(O)C[C@H](OC(=O)[C@H](O)[C@@H](NC(=O)c4ccccc4)c4ccccc4)C(C)=C1C3(C)C)[C@]1(OC(C)=O)CO[C@@H]1C[C@@H]2O [paclitaxel]
% stimulation of ATPase activity at 5 μM (ABCC10 (MRP7) [3]): 15%

CNC(=O)c1cc(Oc2ccc(NC(=O)Nc3ccc(Cl)c(C(F)(F)F)c3)cc2)ccn1 [sorafenib]
% inhibition at 5 μM (ABCC10 (MRP7) [5]): cepharanthine, sorafenib, imatinib, nilotinib, erlotinib and lapatinib were effective inhibitors of ABCC10 ATPase activity
